Values quoted from earlier work as cited in patent US20150314047A1, “BORON COMPOSITE SURFACE COATINGS AND THEIR APPLICATION ON IMPLANTABLE DEVICES TO ACCELERATE OSSEOUS HEALING” (Rutgers, The State University of New Jersey, priority 2014, published 2015).
Read-outs that look alike come from different tables or passages of the source.

Legend:
axial skeleton = conditions: boron administered at several concentrations
pre-osteoblastic cells = conditions: 0.1, 1, 10, and 100 ng/mL boron concentrations
[1] = tested on: human origin cultured cells

In the case of `[B]` [boron], the “Higher resistance to vertebral crushing force” value (axial skeleton) is given as 10% and the “Bone Morphogenic Proteins (BMPs)-4, -6, and -7” value (pre-osteoblastic cells) is given as “increases”.
In the case of `[Co]` [cobalt], the “Effect on cell survival” value ([1]; even at reasonably high concentrations) is listed as “negatively affected cell survival”.
For cubic boron nitride, the “Effect on cell survival” value [1] is given as “did not affect cell survival”.
